A short description of data set [1]: Swelling test, Louisiana gumbo shale. The settings on record: gumbo shale pellets. The source says: The swelling inhibition effects of drilling fluids of this invention on water-sensitive shales have been evaluated by performing swelling tests using a Computer-Aided Swellmeter developed by M-I Drilling Fluids L.L.C. This device is described in, Lee, John, "Swellmeter Analysis," M-I® TECH-NEWS, November 1989. Pellets with 1 inch diameter, prepared by compressing pulverized water-sensitive shales under controlled loads, are placed in specially designed holders and allowed to be in direct contact with test fluids. The pellets are allowed to adsorb test fluids and swell for a period of time ranging from about 60 to 120 hours in the test fluids. Volume expansions of the pellets are recorded by using liner variable differential transformers. The volume expansions of the pellets and slopes of the swelling curves at the end of the test are used to evaluate the water adsorption and swelling inhibition of the test fluids.
The swelling tests were performed according to the test procedures given above. The argillaceous rock used for the tests was a "gumbo shale" obtained from offshore Louisiana. The gumbo shale was pulverized and pressed into 1 inch diameter pellets under 10,000 pounds of force for 5 minutes. The volume expansions of the pellets and the swelling rates calculated from swelling data obtained between 55 and 60 hours of the test are shown in Table 2. […]

For data set [2] the following is noted: cited from earlier work; for single-dose oral LD50: from Patty's Industrial Hygiene and Toxicology, 1978; for toxicity ranking / hazard in words: based on laboratory test data, direct ingestion.
For data set [3] the following is noted: U.S. Pat. No. 4,830,765, cited from earlier work; for swelling of bentonite: 100% glycol fluid; for concentration needed to provide appreciable swelling inhibition on bentonite: in a fluid phase.

As to `C[N+](C)(C)CCO.[Cl-]` [Choline Chloride, choline chloride], in data set [1], the “swelling inhibition in words” value is listed as “more effective than the inorganic cationic material”.

In the case of `OCCOCCO` [Diethylene Glycol], the “single-dose oral LD50” value in data set [2] is reported as 16-21 gm/KG.

Take `OCCO` [Ethylene Glycol]: in data set [2], the “toxicity ranking / hazard in words” value is on record as “most toxic” and the “single-dose oral LD50” value is 6-12 gm/KG.

`CC(O)CO` (stereo not drawn) [Propylene Glycol]: in data set [3], the swelling of bentonite entry is “completely prevented” and the “concentration needed to provide appreciable swelling inhibition on bentonite” value is recorded as no less than 50 % by weight. Further, in data set [2], the “toxicity ranking / hazard in words” value is “least toxic” and the “single-dose oral LD50” value was 21-34 gm/KG.

Take `OCCOCCOCCO` [Triethylene Glycol]: the “single-dose oral LD50” value in data set [2] was 16-22 gm/KG.

As for `CC(O)COC(C)COC(C)CO` (stereo not drawn) [Tripropylene Glycol], in data set [3], the swelling of bentonite entry is listed as “completely prevented”.

Turning to `OCC(O)CO` [glycerin], the “concentration needed to provide appreciable swelling inhibition on bentonite” value in data set [3] is no less than 50 % by weight.

As for `OC[C@@H](O)[C@@H](O)[C@H](O)[C@@H](O)CO` [sorbitol], in data set [3], the “concentration needed to provide appreciable swelling inhibition on bentonite” value is reported as no less than 50 % by weight.

In the case of Butylene Glycol, in data set [2], the “toxicity ranking / hazard in words” value is recorded as “least toxic” and the “single-dose oral LD50” value is listed as 23-30 gm/KG.

On to Dipropylene Glycol, for which the “single-dose oral LD50” value in data set [2] is recorded as ~ 15 gm/KG.

These data come from US5635458A, “Water-based drilling fluids for reduction of water adsorption and hydration of argillaceous rocks” (M-I Drilling Fluids, L.L.C., priority 1995, dated 1997).
